{"source": "patent US20260365618A1", "about": "(priority 2022, published 2026)", "test_system": "F. tularensis subsp. holarctica", "experiment": "microbe, parasite or virus in culture", "format": "cell-based, Francisella tularensis subsp. holarctica", "conditions": "Francisella tularensis, 48 h", "data": [{"compound": "CC[C@H]1OC(=O)[C@H](C)[C@@H](O[C@H]2C[C@@](C)(OC)[C@@H](O)[C@H](C)O2)[C@H](C)[C@@H](O[C@@H]2O[C@H](C)C[C@H](N(C)C)[C@H]2O)[C@](C)(O)C[C@@H](C)C(=O)[C@H](C)[C@@H](O)[C@]1(C)O", "note": "[Erythromycin]", "values": [{"measurement": "MIC50", "value": 8, "unit": "µg/mL"}]}, {"compound": "C=C[C@]1(C)C[C@@H](OC(=O)CS[C@@H]2CC[C@@H](N)C[C@H]2O)[C@]2(C)[C@H](C)CC[C@]3(CCC(=O)[C@H]32)[C@@H](C)[C@@H]1O", "note": "[Lefamulin, 14-O-{[(1R, 2R, 4R)-4-amino-2-hydroxy-cyclohexylsulfanyl]-acetyl}-mutilin]", "values": [{"measurement": "MIC50", "value": 4, "unit": "µg/mL"}, {"measurement": "MIC", "setting": "read-out: MIC Range", "value": "0.5 to 8", "unit": "µg/mL"}]}]}
